Results as given in publication PMC10394516, “The pharmacokinetic profile of brensocatib and its effect on pharmacodynamic biomarkers including NE, PR3, and CatG in various rodent species” (Frontiers in Pharmacology, 2023).

Assays:
Type in all cases: in vivo
PR3 [1] = test: Bone marrow PR3 activity after repeated dosing, BALB/c mice; details: for Reduction of PR3 activity vs vehicle / Change From Vehicle Control (%) PR3: 7 days
Experimental: (§1) Briefly, animals were weighed and randomized into different treatment groups. In total, three different dosing levels of brensocatib were tested in each species and strain; each QD dosing level was equivalent to 1.5-times the matching daily BID dose. For BID dosing, the second daily dose was administered 8-h post the morning dose. C57BL/6 mice were dosed either BID or QD for 7 consecutive days at 0/0, 0.5/0.75, 2/3, and 20/30 mg/kg/day (BID/QD). BALB/c mice were dosed for 7 consecutive days at 0/0, 0.2/0.3, 2/3, and 20/30 mg/kg/day (BID/QD). SD rats were dosed for 9 consecutive days at 0/0, 0.2/0.3, 2/3, and 20/30 mg/kg/day (BID/QD). Wistar rats were dosed for 7 consecutive days at 0/0, 0.2/0.3, 2/3, and 20/30 mg/kg/day (BID/QD).
(§2) At the completion of the study, animals were sacrificed 16–24 h post their final dose. The hind limb bones (femurs and tibias) were collected at necropsy for bone marrow analysis of NSP activities by kinetic enzymatic assays ([Basso et al., 2022]). See section Quantification of Bone Marrow NSP Activities for details.
(§3) For the mice, each animal had the femurs and tibias of both hind limbs harvested. For the rat, the femur and tibia from a single hind limb per animal was harvested. Bones were kept on wet ice until processing for bone marrow collection. In brief, bone cutters were used to cut the epiphysis (knobby ends) off the long bones to expose the bone marrow filled cavity. Each bone cavity was then flushed with 5 mL/bone (mouse) or 10 mL/bone (rat) of ice-cold RPMI media through a […] and collected in a 50-mL conical tube. Cells were spun down at 2,500 × g at 4°C for 5 min and the supernatant was aspirated. After which, bone marrow cells were lysed with 1X red blood cell (RBC) lysis buffer (Abcam, ab204733) to eliminate contaminating RBCs and washed with PBS to remove any residual RBC lysis buffer. The resulting white blood cells (WBC) were subsequently lysed with 1% (v/v) Triton X-100 in PBS. Lysates were added to 96-well plates and stored at −80°C until NSP analyses.
(§4) Bone marrow lysates prepared as described above were diluted and plated onto 96-well assay plates to quantify NSP activities as described previously ([Basso et al., 2022]). Briefly, peptide substrates for NE (N-Methoxysuccinyl-Ala-Ala-Pro-Val-7-amido-4-methylcoumarin; Sigma; St. Louis, MO; Excitation/Emission at 350/450 nm), PR3 ((7-Methoxycoumarin-4-yl)acetyl-lysyl-(picolinoyl)-Tyr-Asp-Ala-Lys-Gly-Asp-N-3-(2-4-dinitrophenyl)-2-3-diaminopropyonyl-NH2); GenScript; Piscataway, NJ; Excitation/Emission at 340/430 nm), and CatG (N-Succinyl-Ala-Ala-Pro-Phe p nitroanilide; Sigma; Absorbance at 405 nm) were added at a final assay concentration of 100 μM, 40 μM, and 200 μM, respectively, and either fluorescence or absorbance was quantified using a Synergy microplate reader (BioTek; Winooski, VT). The specific NSP activity in each sample was calculated as the total activity minus the activity in the presence of a specific NSP inhibitor (if used), including elastase inhibitor (Abcam) for NE, sivelestat (Abcam) for PR3, and cathepsin G inhibitor I (Cayman Chemical; Ann Arbor, MI) for CatG. NSP concentrations were interpolated based on their activities relative to the standard curves created using active human NE protein (Sigma), active human PR3 protein (Sigma), and active human CatG protein (Sigma), respectively. Due to unavailability of commercial mouse and/or rat NE, PR3, and CatG proteins, the corresponding human proteins were used instead since their catalytic ability is considered to be conserved across species. A portion of each cell lysate sample was retained for protein quantification using a Pierce™ BCA Protein Assay Kit (Thermo Fisher). The NSP activities were normalized for the cell lysate protein concentrations.
(§5) The Pierce™ BCA Protein Assay Kit was used to measure the total protein of the samples after lysis to allow for subsequent normalization. […]

CatG = test: Bone marrow CatG activity after repeated dosing, Wistar rats; details: for Reduction of CatG activity vs vehicle / Change From Vehicle Control (%) CatG: 7 days
Experimental: as §1, §2, §3, §4, §5

PR3 [2] = test: PD onset study, bone marrow PR3 activity, C57BL/6 mice; details: for Percent change from vehicle PR3: bone marrow, 5 mg/kg BID oral
Experimental: A 14-day PD onset study was performed in female C57BL/6 mice dosed BID. Mice were dosed by oral gavage either with vehicle (0 mg/kg) or 5 mg/kg brensocatib (BID; 10 mg/kg/day) for 1, 4, 7, 10, or 14 consecutive days. Plasma was collected from animals during the first 24 h of dosing at 1, 2, 8, 9, 10, and 24 h post the initial dose. Note the 8- and 24-h plasma samples were prior to the afternoon dose and the second day dose (if applicable), respectively. Plasma was used for PK analysis via LC-MS/MS. On prescribed days, animals were sacrificed 16 h post final dose, and the hind bones (femurs and tibias) were collected at necropsy for bone marrow analysis of NSP activities by kinetic enzymatic assays.
as §3, §4
The Pierce™ BCA Protein Assay Kit was used to measure the total protein of the samples after lysis to allow for subsequent normalization. The manufacturer’s instructions for use were followed when performing this assay on a portion of the sample lysates which were diluted in PBS, the same diluent as used for preparation of the standard. Plates were read on the Biotek Synergy plate reader with Gen5 software.

[3] = BID highest dose (20 mg/kg/day)
[4] = highest dose level 20/30 (BID/QD) mg/kg/day
[5] = 5 mg/kg BID, curve fit with free min and max

For Cn1c(=O)oc2ccc(-c3ccc(C[C@@H](C#N)NC(=O)[C@@H]4CNCCCO4)cc3)cc21 [brensocatib], the “Reduction of PR3 activity vs vehicle” value (PR3 [1]; [3]) was 70%, the “Reduction of PR3 activity vs vehicle” value (PR3 [1]; QD highest dose (30 mg/kg/day)) was 52% and the “Combined BID and QD percentage reduction, PR3” value (PR3 [1]; [4]) was 61%. For the same compound, the “Change From Vehicle Control (%) PR3” value (PR3 [1]; oral BID 0.2 mg/kg/day, 16 h post final dose) was “+13% (p = 0.6435)”, the “Change From Vehicle Control (%) PR3” value (PR3 [1]; oral BID 2 mg/kg/day, 16 h post final dose) was −26% (p = 0.1243) and the “Change From Vehicle Control (%) PR3” value (PR3 [1]; oral BID 20 mg/kg/day, 16 h post final dose) was −70% (p < 0.0001). The “Change From Vehicle Control (%) PR3” value (PR3 [1]; oral QD 0.3 mg/kg/day, 24 h post final dose) was −7% (p = 0.9149), the “Change From Vehicle Control (%) PR3” value (PR3 [1]; oral QD 3 mg/kg/day, 24 h post final dose) was −13% (p = 0.6769) and the “Change From Vehicle Control (%) PR3” value (PR3 [1]; oral QD 30 mg/kg/day, 24 h post final dose) was −52% (p = 0.0010). The “Reduction of CatG activity vs vehicle” value (CatG; [3]) was 32%, the “Reduction of CatG activity vs vehicle” value (CatG; QD highest dose (30 mg/kg/day)) was 41% and the “Combined BID and QD percent reduction, CatG” value (CatG; [4]) was 37%. For the same compound, the “Change From Vehicle Control (%) CatG” value (CatG; oral BID 0.2 mg/kg/day) was −14% (p = 0.7146), the “Change From Vehicle Control (%) CatG” value (CatG; oral BID 2 mg/kg/day) was −16% (p = 0.6392) and the “Change From Vehicle Control (%) CatG” value (CatG; oral BID 20 mg/kg/day) was −32% (p = 0.1106). The “Change From Vehicle Control (%) CatG” value (CatG; oral QD 0.3 mg/kg/day) was “+5% (p = 0.9843)”, the “Change From Vehicle Control (%) CatG” value (CatG; oral QD 3 mg/kg/day) was −35% (p = 0.0605) and the “Change From Vehicle Control (%) CatG” value (CatG; oral QD 30 mg/kg/day) was −41% (p = 0.0202). The “Onset: Maximum reduction (plateau), PR3” value (PR3 [2]; [5]) was 76%, the “Onset: Time to reach 50% reduction, PR3” value (PR3 [2]; [5]) was 4.5 days and the “Onset: Time to reach max reduction, PR3” value (PR3 [2]; [5]) was 8.0 days. The “Percent change from vehicle PR3” value (PR3 [2]; after 1 day of treatment) was −5% (p = 0.9972), the “Percent change from vehicle PR3” value (PR3 [2]; after 4 days of treatment) was −43% (p = 0.0236) and the “Percent change from vehicle PR3” value (PR3 [2]; after 7 days of treatment) was −85% (p < 0.0001). The “Percent change from vehicle PR3” value (PR3 [2]; after 10 days of treatment) was −71% (p < 0.0001) and the “Percent change from vehicle PR3” value (PR3 [2]; after 14 days of treatment) was −81% (p < 0.0001).
